Measured values: patent US5906920A, “Methods for the detection of ligands for retinoid X receptors” (The Salk Institute for Biological Studies, priority 1995, dated 1999)

Tested on: GST-RXR197-462 interaction with in vitro translated TBP
Test: GST pull-down RXR-TBP interaction assay in vitro
Type: binding, human
Conditions: 1.0 μM 9-cis retinoic acid in all buffers; quantitated by phosphorimaging
From the text: GST-RXR197-462 was constructed by PCR amplification of the appropriate sequences from human RXRα. The amplification products were cloned into EcoRI-BamHI digested pGEX2TK. All PCR-derived constructs were verified by sequencing. The plasmid pGEX-TBP was the kind gift of Dr. I. Verma (Salk Institute; see Kerr et al., in Nature 365:412-419 (1993)). Mammalian expression constructs expressing the ligand biding domains of human RXRα, human RARα and human TRβ have been described elsewhere (Forman et al., Cell 81:541-550 (1995)).
GST-fusion proteins were induced, solubilized and bound to glutathione beads following the manufacturer's procedures (LKB-Pharmacia). After binding to glutathione beads, 15 μl of the suspension was incubated with 1 to 2 μl of the appropriate ^35 S-labeled in vitro translated protein for 1 hour in 500 μl of NETN (20 mM Tris-HC1, pH 7.5, 100 mM KC1, 0.7 mM EDTA, 0.5% NP40, 1 mM PMSF). Following incubation, the beads were washed three times with NETN. […]
Thus GST pull-down experiments were carried out as follows. TBP was in vitro transcribed and translated as described above, and incubated with equal amounts of immobilized GST-RXR197-462 or GST-RXR-E453K/E456K) as determined by coomassie stained gels. […] Little or no interaction between TBP and GST alone is detected under these conditions.

CC1=C(/C=C/C(C)=C\C=C\C(C)=C\C(=O)O)C(C)(C)CCC1 [9-cis retinoic acid]
stimulation of the RXR-TBP interaction in vitro by addition of ligand: 3-5 fold
